The subject of one series is MCF7 cells. Put plainly: Breast cancer cell proliferation assay (MCF-7), Cell Titer-Glo. The series is classed as cell-based. The note with it: Homo sapiens, 120 h, 5 days of compound exposure. As for the experimental part:
Breast Cancer Cell Proliferation Assay (MCF-7)
MCF7 cells were expanded and maintained in DMEM (Hyclone SH30272.01, Phenol red free) with NEAA (Gibco11140-050), Na-pyruvate (Gibco 11360-070) and Re-stripped Charcoal stripped FBS (Gemini 100-119)). The cells were adjusted to a concentration of 3,000 cells per mL and incubated (37° C., 5% CO2). The following day a 10 point, serial dilution of compounds was added to the cells at a final concentration ranging from 10 μM to 0.000005 μM for test compounds (17β-estradiol was used as a control). Additional cells were plated in 30 wells to serve as the day 1 (pretreatment) comparison. After 5 days of compound exposure, Cell Titer-Glo reagent was added to the cells and the relative luminescence units (RLUs) of each well was determined Cell Titer-Glo was also added to 32 μL of medium without cells to obtain a background value. The plates were allowed to incubate at room temperature for 10 minutes to stabilize luminescent signal and the luminescence signal was recorded with EnSpire. The relative increase in cell number of each sample is determined as follows: (RLU sample-RLU background/RLU estrogen only treated cells-RLU background)×100=[…].

The target in series [1] is T1, ESR1 protein (estrogen receptor alpha) (Homo sapiens, UniProt P03372).
T1 construct: After incubating cells with the indicated compounds for 18-24 hours, cell lysates were prepared; endogenous in cells; host or cells: MCF-7
T1 sequence (P03372 1-595): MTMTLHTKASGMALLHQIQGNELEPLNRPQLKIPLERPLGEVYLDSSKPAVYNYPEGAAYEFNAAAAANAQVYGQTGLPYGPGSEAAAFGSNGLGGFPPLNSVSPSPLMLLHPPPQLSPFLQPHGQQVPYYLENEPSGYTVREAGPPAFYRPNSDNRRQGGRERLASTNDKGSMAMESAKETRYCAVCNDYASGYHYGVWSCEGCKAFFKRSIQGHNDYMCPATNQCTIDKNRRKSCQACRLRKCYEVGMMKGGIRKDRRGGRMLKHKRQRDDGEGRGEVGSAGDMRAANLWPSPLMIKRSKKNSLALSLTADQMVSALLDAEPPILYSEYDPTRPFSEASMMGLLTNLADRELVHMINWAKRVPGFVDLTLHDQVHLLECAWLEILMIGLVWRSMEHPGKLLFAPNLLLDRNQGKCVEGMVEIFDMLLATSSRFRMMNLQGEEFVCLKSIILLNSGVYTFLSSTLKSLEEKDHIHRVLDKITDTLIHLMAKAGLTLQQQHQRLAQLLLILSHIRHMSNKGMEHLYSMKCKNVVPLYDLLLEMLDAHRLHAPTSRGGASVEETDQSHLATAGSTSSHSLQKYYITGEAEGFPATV
The series can be described thus: ER degradation determination by Western blot in MCF-7 cells. Type of series: cell-based. The settings on record: 10 μM, 18-24 hours. As for the experimental part: ER Degradation Determination by Western Blot
MCF-7 cells were plated at 0.3 million cells/mL (3 mL/well) in 6-well plates in experiment media and incubated at 37° C., 5% CO2 for 48 hours. A 10× solution of compounds were made in DMSO and added the solution to the cells to achieve a final concentration of 10 μM. A DMSO control was included to enable a determination of the relative efficacy of test compounds. […] After incubating cells with the indicated compounds for 18-24 hours, cell lysates were prepared (2× Cell lysis buffer: 100 mM Tris, pH 8, 300 mM NaCl, 2% NP40, 1% Na deoxycholate, 0.04% SDS and 2 mM EDTA) and mixed thoroughly and incubated on ice. The protein concentration was quantified using BCA kit. […] The gel was then transferred onto a nitrocellulose membrane. […] GAPDH protein was used as an internal control.
On the technique in general: Immunoblotting shows a protein as a band on a membrane.

Series [2] in a line: Pharmacokinetic determination in rats. The series is classed as in vivo, female SD rats. The note with it: rat. As for the experimental part:
(§1) Pharmacokinetic Determination
(§2) Grouping female CD mice weighing 20-30 g or female SD rats weighing 200-300 g randomly to two groups; one group was administered with test compound at a dose of 3.0 mg/kg by intravenous injection, the other group was administered with test compound at a dose of 10.0 mg/kg orally. The formulation for IV groups were DMSO/PEG400/150 mM glycine (pH 9) (5/10/85) and the formulation for PO groups were PEG400/PVP/Tween 80/0.5% CMC in water (9/0.5/0.5/90). After administering, blood samples of intravenous injection group were collected at time points of predose, 0.0833, 0.25, 0.5, 1, 2, 4, 8, 12 and 24 h; blood samples of oral group were collected at time points of predose, 0.25, 0.5, 1, 2, 4, 8, 12, and 24 h. Standard curve was plotted based on concentrations of the samples in a suitable range, the concentrations of test compounds in plasma samples were determined by using LC-MS/MS. Pharmacokinetic parameters were calculated according to drug concentration-time curve using a noncompartmental method by WinNonLin (Phoenix™, version 6.1) or other similar software.

Series [3] can be described thus: Pharmacokinetic determination in mice. Type of series: in vivo, female CD mice. The settings on record: mouse. As for the experimental part:
as §1, §2

The next series deals with T2, ERα (ESR1 protein) (Homo sapiens, UniProt P03372).
T2 construct: After incubating cells with the indicated compounds for 18-24 hours, cell lysates were prepared; endogenous in cells; host or cells: MCF-7
T2 sequence (P03372 1-595): T1 sequence (P03372 1-595)
The series can be described thus: ERα EC50 determination (Western blot band density, MCF-7 cells). The series is classed as cell-based. The settings on record: 18-24 hours, ERα degradation. The source says:
A DMSO control was included to enable a determination of the relative efficacy of test compounds. […] The protein concentration was quantified using BCA kit.

In another series the target is T3, estrogen receptor (Homo sapiens, UniProt P03372).
T3 sequence (P03372 1-595): T1 sequence (P03372 1-595)
The note with it: 500 mg monthly dose; cited from earlier work.

The mark [4] stands for this setting: female, SD, plasma, IV, 3.0 mg/kg.
[5] abbreviates: female, SD, plasma, PO, 10.0 mg/kg.
The mark [6] stands for this setting: female, CD, plasma, IV, 3.0 mg/kg.
Where [7] appears, read: female, CD, plasma, PO, 10.0 mg/kg.

One may read the IC50 as the concentration needed to halve the response being measured. Read a high IC50 as weaker potency. For orientation: AUC(0-inf) means total exposure, with the tail of the curve extrapolated. As usually defined, the clearance is the rate of elimination divided by the concentration. A low value points to inefficient removal. The half-life is the time needed for the level to fall by half in the phase considered. Read a high half-life as slow decline. A word on the Cmax: it is the maximum level reached in the sampled fluid or tissue. As a reminder, the Tmax is the time from dosing to the highest level. As a reminder, the EC50 is the concentration giving half of the maximal effect.

`CC/C(=C(/c1ccc(/C=C/C(=O)O)cc1)c1ccc2[nH]ncc2c1)c1ccc(F)cc1Cl` [ARN810] showed a half-maximal inhibitory concentration (IC50) in the series with MCF7 cells not above 25 nM.
As for `C[C@@H]1Cc2c([nH]c3ccccc23)[C@@H](c2c(F)cc(/C=C/C(=O)O)cc2F)N1CC(C)(C)F` [AZD9496], the ERα % degradation result in series [1] is “A (ERα % degradation ≥ 80%)”. The half-inhibitory concentration (IC50) in the series on MCF7 cells is not above 25 nM.
Consider `CC/C(=C(\c1ccc(O)cc1)c1ccc(/C=C/C(=O)O)cc1)c1ccc(F)cc1Cl` [Example 1, (E)-3-(4-((E)-2-(2-chloro-4-fluorophenyl)-1-(4-hydroxyphenyl)but-1-en-1-yl)phenyl)acrylic acid], for which the total exposure AUC(0-inf) in series [2] (setting [4]) is 6.3 µM·h; in series [2] (setting [5]), 11.1 µM·h; in series [3] (setting [6]), 2.4 µM·h; in series [3] (setting [7]) it was 7 µM·h. Also, the clearance was determined as 19 mL/min/kg in series [2] (setting [4]) and 49.6 mL/min/kg in series [3] (setting [6]). The half-life in series [2] (setting [4]) is 234 min; in series [2] (setting [5]) it was 480 min; in series [3] (setting [6]) it was 234 min; in series [3] (setting [7]), 204 min. Also, the Vd turned out to be 2.9 L/kg in series [2] (female, SD, plasma, IV, 3.0 mg/kg, read-out: Vdss) and 6 L/kg in series [3] (female, CD, plasma, IV, 3.0 mg/kg, read-out: Vdss). Besides, the peak concentration (Cmax) was 5.7 µM in series [2] (setting [5]) and 2500 nM in series [3] (setting [7]). Besides, the Tmax was 30 min in series [2] (setting [5]) and 15 min in series [3] (setting [7]). Moreover, the F in series [2] (PO, 10.0 mg/kg) was found to be 53%; in series [3] (PO, 10.0 mg/kg), 88%. For the same molecule, in series [1], the ERα % degradation result is recorded as “B (ERα % degradation < 80%)”. Moreover, the IC50 in the series with MCF7 cells is not above 25 nM. The molecule further yielded a concentration giving a half-maximal response (EC50) at ERα (ESR1 protein) of less than 25 nM.
Regarding `C[C@]12CC[C@@H]3c4ccc(O)cc4C[C@@H](CCCCCCCCC[S+]([O-])CCCC(F)(F)C(F)(F)F)[C@H]3[C@@H]1CC[C@@H]2O` (stereo partly drawn) [fulvestrant], the ERα % degradation result in series [1] is “A (ERα % degradation ≥ 80%)”. Further, the “turnover of the receptor in patient samples” value on estrogen receptor is “less than 50%”. The half-maximal inhibitory concentration (IC50) with MCF7 cells is not above 25 nM.

The values are drawn from patent US20210094899A1, “ACRYLIC ACID ANALOGS” (Recurium IP Holdings, LLC, priority 2017, published 2021).
